From ChEMBL document CHEMBL1201862, “PubChem BioAssay data set” (2004)
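Where inhibition never reached the appropriate level, the endpoint shown equals the highest concentration tested. Otherwise, values were interpolated linearly from a five-concentration, 48-hour dose response in 96-well plates. The concentration for 50% growth inhibition is given as GI50.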 Active and inactive are the calls of the source. Rule as the data show it: active = GI50 up to about 1.1 µM and inactive = higher.

What was measured:
Experiment in all cases: NCI tumour cell line growth inhibition, 48 h
HCC 2998 = tested on: HCC 2998
U-251 = tested on: U-251
HT-29 = tested on: HT-29
SK-MEL-5 = tested on: SK-MEL-5
Malme-3M = tested on: Malme-3M
ACHN = tested on: ACHN
HOP-92 = tested on: HOP-92
MOLT-4 = tested on: MOLT-4
COLO 205 = tested on: COLO 205
OVCAR-4 = tested on: OVCAR-4
SF-295 = tested on: SF-295
NCI-H226 = tested on: NCI-H226
HOP-62 = tested on: HOP-62
RPMI-8226 = tested on: RPMI-8226
HCT-116 = tested on: HCT-116
A498 = tested on: A498

Measured: GI50

COc1ccc(/C=C/C(C(=O)O)C(=O)O)cc1
inactive: HCC 2998 > 100 µM | U-251 > 100 µM | HT-29 78.9 µM | SK-MEL-5 76.6 µM | Malme-3M 69.8 µM | ACHN 92 µM | HOP-92 72.1 µM | MOLT-4 25.8 µM | COLO 205 > 100 µM | OVCAR-4 35.2 µM | SF-295 > 100 µM | NCI-H226 > 100 µM | HOP-62 > 100 µM | RPMI-8226 32.8 µM | HCT-116 > 100 µM

N#Cc1ccc(Nc2cnc3ccc(N)cc3n2)cc1
inactive: HCC 2998 > 100 µM | U-251 > 100 µM | HT-29 > 100 µM | SK-MEL-5 > 100 µM | Malme-3M > 100 µM | ACHN > 100 µM | HOP-92 > 100 µM | MOLT-4 > 100 µM | COLO 205 > 100 µM | OVCAR-4 > 100 µM | SF-295 > 100 µM | NCI-H226 > 100 µM | HOP-62 > 100 µM | RPMI-8226 > 100 µM | HCT-116 > 100 µM

Cc1c(C(=O)C/C(=N/NC(=O)C[n+]2ccccc2)C(=O)Nc2ccccc2)[n+]([O-])c2ccccc2[n+]1[O-]
inactive: HCC 2998 > 100 µM | U-251 > 100 µM | HT-29 > 100 µM | SK-MEL-5 > 100 µM | Malme-3M > 100 µM | ACHN > 100 µM | MOLT-4 > 100 µM | COLO 205 > 100 µM | OVCAR-4 > 100 µM | SF-295 > 100 µM | A498 > 100 µM | NCI-H226 > 100 µM | HOP-62 > 100 µM | RPMI-8226 > 100 µM | HCT-116 > 100 µM

C[C@@H](CO)OCOCc1ccccc1
inactive: HCC 2998 > 100 µM | U-251 > 100 µM | HT-29 > 100 µM | SK-MEL-5 > 100 µM | Malme-3M > 100 µM | HOP-92 > 100 µM | MOLT-4 > 100 µM | COLO 205 > 100 µM | OVCAR-4 > 100 µM | SF-295 > 100 µM | A498 > 100 µM | HOP-62 > 100 µM | RPMI-8226 > 100 µM | HCT-116 > 100 µM

COC(=O)C(=O)C(C(=O)C(=O)Nc1ccc([N+](=O)[O-])cc1)c1nc2ccccc2nc1O (stereo unspecified)
inactive: U-251 > 100 µM | HT-29 81.5 µM | SK-MEL-5 43.6 µM | Malme-3M > 100 µM | ACHN 55.2 µM | HOP-92 > 100 µM | MOLT-4 > 100 µM | COLO 205 > 100 µM | OVCAR-4 > 100 µM | A498 > 100 µM | NCI-H226 > 100 µM | HOP-62 39.6 µM | RPMI-8226 > 100 µM | HCT-116 > 100 µM

O=C(Nc1cccc(Cl)c1)c1cc2cc(/N=N/c3ccc(Br)cc3)ccc2oc1=O
inactive: HCC 2998 25.8 µM | U-251 26.7 µM | HT-29 66.7 µM | SK-MEL-5 36.8 µM | Malme-3M > 100 µM | ACHN 23.7 µM | HOP-92 37.8 µM | MOLT-4 14.9 µM | COLO 205 41.4 µM | OVCAR-4 27.7 µM | SF-295 42 µM | A498 > 100 µM | HOP-62 > 100 µM | RPMI-8226 33.2 µM | HCT-116 37.2 µM

Cc1cc2c(=O)cc(-c3ccncc3)oc2c(C(=O)O)c1C
inactive: HCC 2998 > 100 µM | U-251 > 100 µM | HT-29 > 100 µM | Malme-3M > 100 µM | ACHN > 100 µM | HOP-92 > 100 µM | MOLT-4 > 100 µM | COLO 205 > 100 µM | SF-295 > 100 µM | NCI-H226 > 100 µM | HOP-62 > 100 µM | RPMI-8226 > 100 µM | HCT-116 > 100 µM

CSCC(COC(C)=O)(CSC)c1ccncc1
inactive: HCC 2998 > 100 µM | U-251 > 100 µM | HT-29 > 100 µM | SK-MEL-5 53.6 µM | Malme-3M > 100 µM | ACHN > 100 µM | MOLT-4 > 100 µM | COLO 205 > 100 µM | OVCAR-4 > 100 µM | SF-295 > 100 µM | A498 > 100 µM | HOP-62 > 100 µM | RPMI-8226 > 100 µM | HCT-116 > 100 µM

C#C[C@]1(O)CCCC2=CC(=O)CC[C@@]21C
inactive: HCC 2998 > 100 µM | U-251 > 100 µM | HT-29 > 100 µM | SK-MEL-5 > 100 µM | Malme-3M > 100 µM | ACHN > 100 µM | HOP-92 > 100 µM | MOLT-4 > 100 µM | COLO 205 > 100 µM | SF-295 > 100 µM | NCI-H226 > 100 µM | RPMI-8226 > 100 µM

Cn1c(=O)c2c3ccccc3c(C(=O)c3ccccc3)n2c2ccccc21
inactive: U-251 18.9 µM | HT-29 3.63 µM | SK-MEL-5 6.08 µM | Malme-3M 5.62 µM | ACHN 24 µM | HOP-92 3.84 µM | MOLT-4 3.94 µM | COLO 205 5.51 µM | OVCAR-4 22.6 µM | SF-295 5.69 µM | A498 7.31 µM | NCI-H226 > 56.1 µM | HOP-62 > 42.8 µM | RPMI-8226 3.55 µM | HCT-116 4.12 µM

Cc1ccc(S(=O)(=O)OC(C=O)C(O)C(O)COC(c2ccccc2)(c2ccccc2)c2ccccc2)cc1 (stereo unspecified)
inactive: HCC 2998 12 µM | U-251 14.4 µM | HT-29 12.2 µM | SK-MEL-5 15.4 µM | Malme-3M 19 µM | ACHN 15.3 µM | MOLT-4 6.08 µM | OVCAR-4 18.2 µM | SF-295 12.2 µM | A498 18 µM | NCI-H226 14.9 µM | HOP-62 16.9 µM | RPMI-8226 12.2 µM | HCT-116 16.4 µM

COc1c(OC)c(N)c2cc(C)c(=O)c(C)cc2c1N
inactive: HCC 2998 > 100 µM | U-251 > 100 µM | HT-29 > 100 µM | SK-MEL-5 > 100 µM | Malme-3M > 100 µM | ACHN > 100 µM | HOP-92 > 100 µM | MOLT-4 > 100 µM | COLO 205 35.4 µM | OVCAR-4 > 100 µM | SF-295 > 100 µM | A498 > 100 µM | HOP-62 > 100 µM | RPMI-8226 > 100 µM | HCT-116 97.1 µM

NC(CCSCCF)C(=O)O (stereo unspecified)
inactive: U-251 > 100 µM | HT-29 > 100 µM | ACHN > 100 µM | HOP-92 > 100 µM | MOLT-4 > 100 µM | COLO 205 > 100 µM | OVCAR-4 > 100 µM | A498 > 100 µM | NCI-H226 > 100 µM | HOP-62 > 100 µM | RPMI-8226 > 100 µM | HCT-116 > 100 µM

Oc1cccc2c1NC1=C(CCC/C1=C\c1ccccc1)C2
inactive: HCC 2998 49.3 µM | U-251 69 µM | HT-29 49.8 µM | SK-MEL-5 > 100 µM | Malme-3M > 100 µM | ACHN 53.5 µM | MOLT-4 34.8 µM | COLO 205 > 100 µM | SF-295 71.8 µM | NCI-H226 > 100 µM | HOP-62 > 100 µM | RPMI-8226 52 µM | HCT-116 82.6 µM
